Measured values from publication PMC12444472, “BCI inhibits MKP3 by targeting the kinase-binding domain and disrupting ERK2 interaction” (The Journal of Biological Chemistry, 2025).

Key:
Experiment in all cases: NMR titration (1H-15N HSQC)
Assay type in all cases: binding
MKP5^KBD = target: T1, MKP5^KBD (Homo sapiens, UniProt Q9Y6W6); settings: molar ratio 1:5
T1 construct: MKP5(139–287) (MKP5^KBD); made in house; host or cells: Escherichia coli BL21(DE3)
T1 sequence (Q9Y6W6 139-287): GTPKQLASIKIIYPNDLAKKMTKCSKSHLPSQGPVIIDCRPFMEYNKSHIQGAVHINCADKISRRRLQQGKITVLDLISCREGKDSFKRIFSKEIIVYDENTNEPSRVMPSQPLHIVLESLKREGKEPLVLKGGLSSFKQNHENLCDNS
Procedure: (§1) NMR data were collected at 298 K on a Bruker AVANCE NEO 800 MHz spectrometer (Bruker BioSpin) equipped with a ^1H&^19F/^13C/^15N TCI cryogenic probe. Backbone resonances of MKP3^1–154 were assigned using 2D/3D experiments, including 2D ^1H–^15N HSQC and 3D ^1H/^13C/^15N CBCA(CO)NH, HNCACB, HNCO, and HN(CA)CO, performed with uniformly ^13C/^15N labeled protein at a final concentration of 0.39 mM in buffer containing 20 mM imidazole (pH 6.0), 100 mM NaCl, 5 mM DTT, 0.5 mM EDTA, and 5% (v/v) D2O. The buffer used for backbone resonance assignment was similar to that used for the previously reported NMR structure ([15]). NMR titration experiments were conducted using ^15N-labeled MKP3^1–154, MKP3^14–152, MKP3^204–350, MKP1^1–141, MKP2^5–159, MKPX^1–140, MKP4^1–143, and MKP5^139–287. 2D ^1H–^15N HSQC spectra of ^15N-labeled MKPs^KBD (0.1 mM) were acquired in the absence and presence of BCI (50 mM stock in DMSO-d6) in buffer containing 50 mM KH2PO4–K2HPO4 (pH 7.2), 100 mM KCl, 1 mM Tris(2-carboxyethyl)phosphine hydrochloride, 1 mM EDTA, and 5% (v/v) D2O. Control experiments, in which only the corresponding volume of DMSO-d6 was added to ^15N-labeled proteins, were performed to exclude possible effects of DMSO on the interactions. For ^15N T1 measurements, the relaxation delay times were set to 20 (×2), 100, 200 (×2), 300, 400, 600 (×2), 800, 1200, and 1600 ms. For ^15N T2 measurements, the delay times were 7.84, 15.68 (×2), 23.52, 31.36 (×2), 39.2, 47.04 (×2), 54.88, 62.72, 78.4, 94.08, and 109.76 ms. The relaxation rates R1 (1/T1) and R2 (1/T2) for each residue were determined by fitting the peak intensities from spectra acquired at the various delay times to a single-exponential decay function: I/I0 = exp(-R1,2·t), where I0 is the intensity at t = 0, and I is the intensity at a delay time t. Repeated measurements were used to estimate the uncertainties of the R1 and R2 values via Monte Carlo analysis. Heteronuclear steady-state ^1H–^15N NOE experiments were acquired in an interleaved mode, with 5 s of ^1H saturation for NOE build-up and 5 s of relaxation delay for the reference spectra. Repeated experiments were performed to estimate uncertainties, and the propagated error for each NOE value was calculated using the following equation: σNOE = NOE × ((σsat/Isat)^2+(σunsat/Iunsat)^2)^1/2, where σsat and σunsat are the SDs of the saturated and unsaturated spectra, respectively, and Isat and Iunsat are the corresponding signal intensities. NMR data were processed using TopSpin 4.1.1 (Bruker BioSpin) or NMRPipe ([54]) and analyzed with POKY ([55]).

MKP3^CD = target: T2, MKP3^CD (Homo sapiens, UniProt Q16828)
T2 construct: ^15N-labeled MKP3^1–154, MKP3^14–152, MKP3^204–350; made in house; host or cells: Escherichia coli BL21(DE3)
T2 sequence (Q16828 204-350): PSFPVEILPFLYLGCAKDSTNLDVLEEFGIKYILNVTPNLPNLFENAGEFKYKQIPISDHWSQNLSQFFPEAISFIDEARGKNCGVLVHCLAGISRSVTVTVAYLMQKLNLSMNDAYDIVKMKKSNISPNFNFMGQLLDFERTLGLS
Procedure: as §1

MKP1^KBD = target: T3, MKP1^KBD (Homo sapiens, UniProt P28562); settings: molar ratio 1:15
T3 construct: MKP1(1–141) (MKP1^KBD); made in house; host or cells: Escherichia coli BL21(DE3)
T3 sequence (P28562 1-141): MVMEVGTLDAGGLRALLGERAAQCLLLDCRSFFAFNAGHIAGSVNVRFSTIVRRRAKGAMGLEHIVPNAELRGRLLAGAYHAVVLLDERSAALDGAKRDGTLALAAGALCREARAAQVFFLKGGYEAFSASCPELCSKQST
Procedure: as §1

MKP2^KBD = target: T4, MKP2^KBD (Homo sapiens, UniProt Q13115); settings: molar ratio to BCI 1:13
T4 construct: MKP2(5–159) (MKP2^KBD); made in house; host or cells: Escherichia coli BL21(DE3)
T4 sequence (Q13115 5-159): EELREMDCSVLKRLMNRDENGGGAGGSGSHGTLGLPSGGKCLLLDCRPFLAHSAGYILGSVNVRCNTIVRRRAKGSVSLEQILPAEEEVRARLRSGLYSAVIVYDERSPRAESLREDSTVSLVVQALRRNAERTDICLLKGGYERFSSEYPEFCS
Procedure: as §1

MKP3^KBD = target: T5, MKP3^KBD (Homo sapiens, UniProt Q16828); settings: 15N-labeled MKP3^KBD titrated with BCI, analysed at 1:4 M ratio
T5 construct: MKP3(1–154) (MKP3^KBD); made in house; host or cells: Escherichia coli BL21(DE3)
T5 sequence (Q16828 1-154): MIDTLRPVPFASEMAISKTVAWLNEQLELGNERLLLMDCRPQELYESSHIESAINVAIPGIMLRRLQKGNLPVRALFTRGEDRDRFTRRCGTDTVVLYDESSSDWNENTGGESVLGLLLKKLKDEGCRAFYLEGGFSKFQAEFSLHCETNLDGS
Procedure: as §1

MKP4^KBD = target: T6, MKP4^KBD (Homo sapiens, UniProt Q99956); settings: molar ratio 1:15
T6 construct: MKP2^5–159, MKPX^1–140, MKP4^1–143, and MKP5^139–287; made in house; host or cells: Escherichia coli BL21(DE3)
T6 sequence (Q99956 1-143): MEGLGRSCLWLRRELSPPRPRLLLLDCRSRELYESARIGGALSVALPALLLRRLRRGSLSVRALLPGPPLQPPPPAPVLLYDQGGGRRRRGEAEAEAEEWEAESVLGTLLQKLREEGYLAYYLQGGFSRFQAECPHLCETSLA
Procedure: as §1

perturbation of NMR spectrum (MKP5^KBD): Significant peak broadening | perturbation of NMR spectrum (MKP3^CD; excess BCI, without DMSO (low-activity state)): no detectable interaction | perturbation of NMR spectrum (MKP3^CD; with 25% DMSO (high-activity state)): failed to perturb the spectrum | perturbation of NMR spectrum (MKP1^KBD): No significant NMR peak perturbation | perturbation of NMR spectrum (MKP2^KBD): Peak broadening was detected | perturbation of NMR spectrum (MKP3^KBD): significant peak broadening | perturbation of NMR spectrum (MKP4^KBD): No significant NMR peak perturbation
Compound: O=C1/C(=C/c2ccccc2)C(NC2CCCCC2)c2ccccc21 (stereo not shown) [BCI, (E)-2-benzylidene-3-(cyclohexylamino)-2,3-dihydro-1H-inden-1-one]
